The first assay concerns Lox-IMVI melanoma cell line. The experiment in a line: Lox-IMVI anti-proliferative assay (growth inhibition, Cell Titer-Glo). The conditions noted are these: Homo sapiens; IC50 activity level in the cell-based Lox-IMVI anti-proliferative assay; read-out: Activity. The format is cell-based, human. Summed up: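 Cells grown in RPMI + 10% FBS were exposed to compound at 0.5 nM to 10 μM (10-point, 3-fold dilution, duplicate, 0.2% DMSO final) for 72 h at 37 °C, 5% CO2. Viability was read by ATP luminescence at t0 and 72 h. IC50 came from a four-parameter logistic fit normalized to DMSO control.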
For `NC(=O)[C@H]1CC[C@@H](n2c(Nc3c(F)cc(Cl)cc3Cl)nc3cnc(N[C@H]4CCC[C@@H](O)C4)nc32)CC1` [Example 376, (1R,4s)-4-(8-(2,4-dichloro-6-fluorophenylamino)-2-((1S,3R)-3-hydroxycyclohexylamino)-9H-purin-9-yl)cyclohexanecarboxamide], the IC50 was over 1000 nM.

For `CC[C@@H](CO)Nc1ncc2nc(Nc3c(Cl)cc(Cl)cc3Cl)n([C@H]3CC[C@@H](C(N)=O)CC3)c2n1` [Example 154, (1R,4s)-4-(2-((S)-1-hydroxybutan-2-ylamino)-8-(2,4,6-trichlorophenylamino)-9H-purin-9-yl)cyclohexanecarboxamide], the IC50 is over 1000 nM. In the case of `CS(=O)(=O)N1CCC(Nc2ncc3nc(Nc4c(F)cc(Cl)cc4F)n([C@H]4CC[C@@H](C(N)=O)CC4)c3n2)CC1` [Example 295, (1s,4s)-4-(8-(4-chloro-2,6-difluorophenylamino)-2-(1-(methylsulfonyl)piperidin-4-ylamino)-9H-purin-9-yl)cyclohexanecarboxamide], the IC50 is over 1000 nM. On the same count and under the same terms, then `NC(=O)[C@H]1CC[C@@H](n2c(Nc3c(F)cc(F)cc3Cl)nc3cnc(NC4COCC4O)nc32)CC1` (stereo partly drawn) [Example 179, (1s,4s)-4-(8-(2-chloro-4,6-difluorophenylamino)-2-(4-hydroxytetrahydrofuran-3-ylamino)-9H-purin-9-yl)cyclohexanecarboxamide], with over 1000 nM; and `NC(=O)[C@H]1CC[C@@H](n2c(Nc3c(F)cc(F)cc3Cl)nc3cnc(N[C@@H]4CCCOC4)nc32)CC1` [Example 187, (1S,4s)-4-(8-(2-chloro-4,6-difluorophenylamino)-2-((R)-tetrahydro-2H-pyran-3-ylamino)-9H-purin-9-yl)cyclohexanecarboxamide], with over 1000 nM. The same measure, in the same setting: then `CC[C@@H](CO)Nc1ncc2nc(Nc3c(Cl)cc(F)cc3Cl)n([C@H]3CC[C@@H](C(N)=O)CC3)c2n1` [Example 145, (1R,4s)-4-(8-(2,6-dichloro-4-fluorophenylamino)-2-((S)-1-hydroxybutan-2-ylamino)-9H-purin-9-yl)cyclohexanecarboxamide], with over 1000 nM.

On to `CC(C)Nc1ncc2nc(Nc3c(F)cc(F)cc3Cl)n([C@H]3CC[C@@H](C(N)=O)CC3)c2n1` [Example 125, (1s,4s)-4-(8-(2-chloro-4,6-difluorophenylamino)-2-(isopropylamino)-9H-purin-9-yl)cyclohexanecarboxamide], for which the IC50 fell in the range of 500 to 1000 nM. Still for that read-out and setting: under `NC(=O)[C@H]1CC[C@@H](n2c(Nc3ccc(Cl)c(F)c3F)nc3cnc(N[C@H]4C[C@@H](O)C4)nc32)CC1` [Example 310, (1s,4s)-4-(8-(4-chloro-2,3-difluorophenylamino)-2-((1s,3s)-3-hydroxycyclobutylamino)-9H-purin-9-yl)cyclohexanecarboxamide] stands over 1000 nM; under `Cc1cccc(F)c1Nc1nc2cnc(NC3CCOCC3)nc2n1[C@H]1CC[C@@H](C(N)=O)CC1` [Example 63, (1s,4s)-4-(8-(2-fluoro-6-methylphenylamino)-2-(tetrahydro-2H-pyran-4-ylamino)-9H-purin-9-yl)cyclohexanecarboxamide], over 1000 nM; under `NC(=O)[C@H]1CC[C@@H](n2c(Nc3c(F)cc(Cl)cc3F)nc3cnc(N[C@H]4CC[C@H](O)C4)nc32)CC1` [Example 329, (1R,4s)-4-(8-(4-chloro-2,6-difluorophenylamino)-2-((1S,3S)-3-hydroxycyclopentylamino)-9H-purin-9-yl)cyclohexanecarboxamide], 500 to 1000 nM. With `C[C@@H](CO)Nc1ncc2nc(Nc3c(Cl)cc(F)cc3Cl)n([C@H]3CC[C@@H](C(N)=O)CC3)c2n1` [Example 166, (1R,4s)-4-(8-(2,6-dichloro-4-fluorophenylamino)-2-((S)-1-hydroxypropan-2-ylamino)-9H-purin-9-yl)cyclohexanecarboxamide], the IC50 was in the range of 500 to 1000 nM. On the same count and under the same terms, then `N#Cc1cc(F)c(Nc2nc3cnc(NC4CCC(F)(F)CC4)nc3n2[C@H]2CC[C@@H](C(N)=O)CC2)c(Cl)c1` [Example 378, (1s,4s)-4-(8-(2-chloro-4-cyano-6-fluorophenylamino)-2-(4,4-difluorocyclohexylamino)-9H-purin-9-yl)cyclohexanecarboxamide], with 250 to 500 nM.

The same assay, now with this note: Homo sapiens; Lox-IMVI anti-proliferative assay, IC50 activity level; read-out: Activity.
For `NC(=O)[C@H]1CC[C@@H](n2c(Nc3c(Cl)cc(C(F)(F)F)cc3Cl)nc3cnc(NC4CCOCC4)nc32)CC1` [Example 442, (1s,4s)-4-(8-(2,6-dichloro-4-(trifluoromethyl)phenylamino)-2-(tetrahydro-2H-pyran-4-ylamino)-9H-purin-9-yl)cyclohexanecarboxamide], the IC50 lay within 250 to 500 nM. Same read-out and setting: then `C[C@]1(C(N)=O)CC[C@@H](n2c(Nc3c(Cl)cc(F)cc3Cl)nc3cnc(NC4CCCC4)nc32)CC1` [Example 560, (1s,4s)-4-(2-(cyclopentylamino)-8-(2,6-dichloro-4-fluorophenylamino)-9H-purin-9-yl)-1-methylcyclohexanecarboxamide], with 250 to 500 nM; and `N#Cc1cc(Cl)c(Nc2nc3cnc(NC4CC(F)(F)C4)nc3n2[C@H]2CC[C@@H](C(N)=O)CC2)c(Cl)c1` [Example 399, (1s,4s)-4-(8-(2,6-dichloro-4-cyanophenylamino)-2-(3,3-difluorocyclobutylamino)-9H-purin-9-yl)cyclohexanecarboxamide], with 250 to 500 nM. For `C[C@]1(C(N)=O)CC[C@@H](n2c(Nc3c(F)cc(Cl)cc3Cl)nc3cnc(NC4CCCC4)nc32)CC1` [Example 557, (1s,4s)-4-(2-(cyclopentylamino)-8-(2,4-dichloro-6-fluorophenylamino)-9H-purin-9-yl)-1-methylcyclohexanecarboxamide], the IC50 was under 250 nM.

On to `C[C@]1(C(N)=O)CC[C@@H](n2c(Nc3c(F)cc(F)cc3F)nc3cnc(NC4CCCC4)nc32)CC1` [Example 556, (1s,4s)-4-(2-(cyclopentylamino)-8-(2,4,6-trifluorophenylamino)-9H-purin-9-yl)-1-methylcyclohexanecarboxamide], for which the IC50 was under 250 nM.

Still in this assay, the particulars now being: Homo sapiens; Lox-IMVI melanoma cell line, anti-proliferative assay; read-out: Activity (IC50 activity level).
Take `C[C@]1(C(N)=O)CC[C@@H](n2c(Nc3c(Cl)cc(Cl)cc3Cl)nc3cnc(N[C@@H]4CCOC[C@H]4F)nc32)CC1` [Example 718, (1S,4s)-4-(2-((3S,4R)-3-fluorotetrahydro-2H-pyran-4-ylamino)-8-(2,4,6-trichlorophenylamino)-9H-purin-9-yl)-1-methylcyclohexanecarboxamide]: the IC50 is under 250 nM. The same measure, in the same setting: under `CS(=O)(=O)N1CCC[C@@H](Nc2ncc3nc(Nc4c(F)cc(Cl)cc4Cl)n([C@H]4CC[C@@H](C(N)=O)CC4)c3n2)C1` [Example 701, (1S,4s)-4-(8-(2,4-dichloro-6-fluorophenylamino)-2-((R)-1-(methylsulfonyl)piperidin-3-ylamino)-9H-purin-9-yl)cyclohexanecarboxamide] stands 500 to 1000 nM; under `CC1(C)COCC[C@H]1Nc1ncc2nc(Nc3c(Cl)cc(Cl)cc3Cl)n([C@H]3CC[C@@H](C(N)=O)CC3)c2n1` [Example 766, (1S,4s)-4-(2-((R)-3,3-dimethyltetrahydro-2H-pyran-4-ylamino)-8-(2,4,6-trichlorophenylamino)-9H-purin-9-yl)cyclohexanecarboxamide], 500 to 1000 nM. The same measure, in the same setting: under `COC(=O)N1CCC[C@@H](Nc2ncc3nc(Nc4c(F)cc(C#N)cc4Cl)n([C@H]4CC[C@@H](C(N)=O)CC4)c3n2)C1` [Example 709, (R)-methyl 3-(9-((1s,4S)-4-carbamoylcyclohexyl)-8-(2-chloro-4-cyano-6-fluorophenylamino)-9H-purin-2-ylamino)piperidine-1-carboxylate] stands 500 to 1000 nM; under `C[C@]1(C(N)=O)CC[C@@H](n2c(Nc3c(F)cc(F)cc3Cl)nc3cnc(N[C@H]4CCC[C@H](O)C4)nc32)CC1` [Example 610, (1R,4s)-4-(8-(2-chloro-4,6-difluorophenylamino)-2-((1S,3S)-3-hydroxycyclohexylamino)-9H-purin-9-yl)-1-methylcyclohexanecarboxamide], 250 to 500 nM; under `NC(=O)[C@H]1CC[C@@H](n2c(Nc3c(F)cc(F)cc3Cl)nc3cnc(NC[C@@H]4CCCC[C@H]4O)nc32)CC1` [Example 660, (1R,4s)-4-(8-(2-chloro-4,6-difluorophenylamino)-2-(((1S,2R)-2-hydroxycyclohexyl)methylamino)-9H-purin-9-yl)cyclohexanecarboxamide], over 1000 nM. As to `Cc1ccc(S(=O)(=O)N2CCC[C@@H](Nc3ncc4nc(Nc5c(F)cc(C#N)cc5F)n([C@H]5CC[C@@H](C(N)=O)CC5)c4n3)C2)cc1` [Example 790, (1S,4s)-4-(8-(4-cyano-2,6-difluorophenylamino)-2-((R)-1-tosylpiperidin-3-ylamino)-9H-purin-9-yl)cyclohexanecarboxamide], the IC50 is over 1000 nM.

For the compound `NC(=O)[C@H]1CC[C@@H](n2c(Nc3c(Cl)cc(Br)cc3Cl)nc3cnc(NC4CCOCC4)nc32)CC1` [Example 690, (1s,4s)-4-(8-(4-bromo-2,6-dichlorophenylamino)-2-(tetrahydro-2H-pyran-4-ylamino)-9H-purin-9-yl)cyclohexanecarboxamide], the IC50 was under 250 nM.

Take `C[C@]1(C(N)=O)CC[C@@H](n2c(Nc3c(F)cc(Cl)cc3Cl)nc3cnc(NC4CCC4)nc32)CC1` [Example 605, (1s,4s)-4-(2-(cyclobutylamino)-8-(2,4-dichloro-6-fluorophenylamino)-9H-purin-9-yl)-1-methylcyclohexanecarboxamide]: the IC50 is under 250 nM.

Staying with this assay, now noted: Lox-IMVI melanoma cell line, anti-proliferative assay; read-out: Activity (IC50 activity level).
In the case of `CNC(=O)N1CCC[C@@H](Nc2ncc3nc(Nc4c(Cl)cc(C#N)cc4Cl)n([C@H]4CC[C@@H](C(N)=O)CC4)c3n2)C1` [Example 707, (R)-3-(9-((1s,4S)-4-carbamoylcyclohexyl)-8-(2,6-dichloro-4-cyanophenylamino)-9H-purin-2-ylamino)-N-methylpiperidine-1-carboxamide], the IC50 is over 1000 nM.
